The structures appear in SMILES notation. Bounds are passed on as bounds.

Compound `CC(=O)OCC12CCC(OC(C)=O)CC1CC=C1C2CCC2(C)C(OC(=O)C(C)(C)C)CCC12O` (centres undefined) gave a melting point of 141 to 142 °C. For the compound `Cc1scc2c1N(C(=O)NCCN1CCC(CCCC3CCCN3C)CC1)c1ccccc1NC2=O` (centres undefined), the melting point fell in the range of 145 to 146 °C.

`CCCCCCNc1nc(SC)[nH]c2nccc1-2` had a melting point of 118 °C.

With `Cc1noc(NS(=O)(=O)c2ccccc2-c2ccc(-c3ncccn3)cc2)c1C`, the melting point was greater than 210 °C. In the case of `C[C@H](CSC(=O)c1ccccc1)C(=O)N1C(c2cccs2)SC[C@H]1C(=O)O` (some centres undefined) it was 136 to 137 °C; in that of `Cc1nccc(N2CCN(C(=O)c3ccccc3)CC2)n1`, 147 °C; in that of `Cc1ccc([C@H]2O[C@@H]2C(N)=O)cc1`, 183 to 185 °C.

With `O=C(Nc1ccc(CP(=O)(O)O)cc1)c1cc(=O)c2ccccc2o1`, the melting point fell in the range of 265 to 266 °C.

The compound `O=C(O)COc1cccc(C(O)C(c2ccccc2)C2SCCCS2)c1` (centres undefined) displayed a melting point of 99 to 101 °C.

Take `O=C1Nc2ccc([N+](=O)[O-])cc2C(=O)N2CCC[C@@H]12`: the melting point was 259 to 261 °C. As to `CCOP(=O)(OCC)C1C(=O)NC(=O)N1C` (centres undefined), the melting point lay in the range of 95 to 96 °C. Take `CN1c2ccc([N+](=O)[O-])cc2CS1(=O)=O`: the melting point fell in the range of 214 to 216 °C. For `OC(CCc1ccoc1)c1cnc2sc3c(n12)CCCCC3` (centres undefined), the melting point fell in the range of 153 to 155 °C. For `CC(C)(C)OC(=O)N1CCC2(CC1)CC(CCc1ccccc1)=NO2`, the melting point is 121 to 124 °C. In the case of `COc1ccc(C(=CC(=O)N2CCOCC2)c2ccc(CC(=O)O)cc2)cc1OC` it was 192 to 194 °C; in that of `CC(=O)OC1CSC(Oc2ccc(-c3ccc(C(F)(F)F)cc3)nc2)C(OC(C)=O)C1OC(C)=O` (centres undefined), 178 to 180 °C; in that of `CCCOc1ccc(C(=O)O)cc1C(C)=O`, 165 to 169 °C.

With `Cc1cc(SCc2ccc(OCc3ccc(Cl)cc3)cc2)ccc1OCC(=O)O`, the melting point is 164 °C. In the case of `COc1ccc2cc(C(C)C(O)(P(=O)(O)O)P(=O)(O)O)ccc2c1` (centres undefined) it was 205 °C; in that of `Cc1ccc(C(=O)c2ccc(Cl)cc2)c(Cl)c1`, 58 to 60.5 °C; in that of `COCCNCc1ccccc1Oc1ccc(-c2cn(C3CCOC3)c3ncnc(N)c23)cc1` (centres undefined), 66 to 68 °C.

Compound `Clc1ccc(C2=CCN(CCCCn3cncn3)CC2)cc1` came in with a melting point of 101 to 103 °C. In the case of `CN1C(=O)CN=C(c2ccccc2F)c2cc(NC(=O)N(CCOC(C)(C)C)Cc3ccccc3)ccc21` it was 82 to 86 °C.

As to `CC(C)S(=O)(=O)C1C(=O)N(Cc2ccccc2F)C(=O)c2ccccc21` (centres undefined), the melting point was in the range of 174 to 181 °C. In the case of `CSCC(C)(C)N(C(=O)c1c(I)cccc1C(N)=O)c1ccc(Cn2nnn(-c3ccc(C(F)(F)F)cc3)c2=O)cc1C` it was 83 to 87 °C; in that of `CCCCCC(CC(=O)Nc1cc(C(N)=O)ccc1C(C)(C)C)c1cc(C(=O)OC)c(OC)cc1OC` (centres undefined), 101 to 103 °C.

As for `N#Cc1cc(Cl)cc(Cl)c1Cl`, the melting point was 77 to 78 °C.

The compound `c1ccc(C(CC2=NCCN2)c2ccccc2)cc1` returned a melting point of 173 to 175 °C. Compound `O=C(C1CCN(c2ccncn2)CC1)N1CCN(S(=O)(=O)c2ccc3cc(Cl)ccc3c2)CC1` came in with a melting point of 218 to 219 °C. In the case of `CCOC(=O)C(O)CCc1ccc(OCCc2nc(-c3ccccc3)oc2C)cc1` (centres undefined) it was 67 to 68 °C. In the case of `Nc1ncnc2c1c(-c1cccc(O)c1)nn2Cc1oc2ccccc2c(=O)c1-c1cccc(F)c1`, the melting point is 280 to 283 °C. Compound `C=CCc1cc(OCC)c2c(c1OC)S(=O)(=O)N(Cc1ccccc1)C2=O` came in with a melting point of 92 to 94 °C. In the case of `O=C(O)CCc1cn(Cc2ccc(OCc3csc(-c4ccccc4)n3)cc2)cc1-c1ccccc1` it was 111 to 112 °C. In the case of `O=C1CC2CCCC(CC(=O)OCc3ccccc3)C2N1` (centres undefined) it was 89 to 90 °C.

Broadly, the melting point is the temperature, or range, at which the solid turns liquid.

The record behind these values is a melting point compilation (Tetko et al.; mined from patent text by program, amines drawn as free bases though some values may be those of a salt).
